How the values were obtained:
[1] = tested on: human endometrial cancer cell strain AN3CA; experiment: Cell growth inhibition test (MTT), AN3CA; format: cell-based; conditions: AN3-CA, 72 h, 3 days culture, read-out: concentration exhibiting anti-cell effect (GI50)
Summary of the method: (§1)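 Cells were seeded per well (AN3CA 5000, IGROV1 1000, HT29 5000), dosed next day and cultured 3 days at 37° C in 5% CO2. Viable cells were read by MTT (4 h, DMSO-solubilized formazan, A540). GI50 was interpolated between the two concentrations bracketing 50% growth rate (T/C %, corrected for day-0 absorbance).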

[2] = tested on: Akt (threonine 308) phosphorylation in AN3CA tumor; experiment: Akt phosphorylation inhibition assay in xenograft; format: in vivo, female nude mouse; conditions: Mus musculus, AN3-CA, oral, 6 hr after dosing
Protocol: A tumor section was prepared from a human endometrial cancer cell strain AN3CA tumor mass formed in a female nude mouse as subcutaneously transplanted tumor and a xenograft model was prepared by subcutaneously transplanting the tumor to a female nude mouse. The test compound at a predetermined concentration was orally administered. After a predetermined time, the anesthetized mouse was exsanguinated to death, and a tumor mass was isolated. The tumor mass was crushed using a lysis buffer containing inhibitors of proteases and dephosphorylating enzymes (Cell Signaling Technology, Inc.) and the supernatant was separated by centrifugation to obtain a tumor extract. The protein content of the tumor extract was measured using DC Protein Assay Kit (Bio-Rad Laboratories, Inc.) and phosphorylation conditions of Akt (threonine 308) and S6 (serine 235 and 236) were analyzed by a usual technique of western blotting using tumor extracts containing the same amount of protein. The primary antibody and the secondary antibody used for detecting each molecule were rabbit anti-phospho-Akt(T308) antibody and HRP-labeled goat anti-rabbit IgG antibody or mouse anti-phospho-S6(S235/236) antibody and HRP-labeled sheep anti-mouse IgG antibody.
The signal intensity detected using an image analyzer Typhoon 9400 (GE Healthcare) was quantified, and the phosphorylation inhibition rate (%) was calculated by the following formula. Phosphorylation inhibitory activity (%) of Akt and S6 after treatment with test compound=100−100×(B/A) A: Signal intensity derived from phosphorylated protein in tumor mass isolated from mouse untreated with test compound B: Signal intensity derived from phosphorylated protein in tumor mass isolated from mouse treated with test compound

[3] = tested on: human ovary cancer cell strain IGROV1; experiment: Cell growth inhibition test (MTT), IGROV1; format: cell-based; conditions: IGROV-1, 72 h, IGROV1, 3 days culture, read-out: concentration exhibiting anti-cell effect (GI50)
Summary of the method: as §1

SMILES | GI50 [1] | GI50 [3] | inhibition at 10 mg/kg [2]
C[C@H](O)CC(=O)N1CCN(c2nc3c(N4CCOCC4)nc(-c4cnc(N)nc4)nc3n2CC(F)(F)F)CC1 [Example 69, (2S)-4-{4-[2-(2-Aminopyrimidin-5-yl)-6-morpholin-4-yl-9-(2,2,2-trifluoroethyl)-9H-purin-8-yl]piperazin-1-yl}-4-oxobutan-2-ol] | ≤ 5 µM | ≤ 5 µM | > 60%
C[C@@H](O)CC(=O)N1CCN(c2nc3c(N4CCOCC4)nc(-c4cnc(N)nc4)nc3n2CC(F)(F)F)CC1 [Example 70, (2R)-4-{4-[2-(2-Aminopyrimidin-5-yl)-6-morpholin-4-yl-9-(2,2,2-trifluoroethyl)-9H-purin-8-yl]piperazin-1-yl}-4-oxobutan-2-ol] | ≤ 5 µM | ≤ 5 µM | > 60%
Nc1ncc(-c2nc(N3CCOCC3)c3nc(N4CCN(C=O)CC4)n(CC(F)(F)F)c3n2)cn1 [Example 71, 4-[2-(2-Aminopyrimidin-5-yl)-6-morpholin-4-yl-9-(2,2,2-trifluoroethyl)-9H-purin-8-yl]piperazine-1-carboaldehyde] | ≤ 5 µM | ≤ 5 µM | > 60%
CC[C@H]1CN(c2nc3c(N4CCOCC4)nc(-c4cnc(N)nc4)nc3n2CC(F)(F)F)CCN1C(C)=O [Example 75, 5-{8-[(3S)-4-Acetyl-3-ethylpiperazin-1-yl]-6-morpholin-4-yl-9-(2,2,2-trifluoroethyl)-9H-purin-2-yl}pyrimidin-2-amine] | ≤ 5 µM | ≤ 5 µM | > 60%
CC[C@H]1CN(c2nc3c(N4CCOCC4)nc(-c4cnc(N)nc4)nc3n2CC(F)(F)F)CCN1C(=O)[C@H](C)O [Example 77, (2S)-1-{(2S)-4-[2-(2-Aminopyrimidin-5-yl)-6-morpholin-4-yl-9-(2,2,2-trifluoroethyl)-9H-purin-8-yl]-2-ethylpiperazin-1-yl}-1-oxopropan-2-ol] | ≤ 5 µM | ≤ 5 µM | > 60%
CC[C@@H]1CN(c2nc3c(N4CCOCC4)nc(-c4cnc(N)nc4)nc3n2CC(F)(F)F)CCN1C(=O)[C@H](C)O [Example 79] | ≤ 5 µM | ≤ 5 µM | > 60%
CC(C)Cn1c(N2CCN(C(=O)C[C@@H](C)O)[C@@H](C)C2)nc2c(N3CCOCC3)nc(-c3cnc(N)nc3)nc21 [Example 83, (2R)-4-{(2S)-4-[2-(2-Aminopyrimidin-5-yl)-9-isobutyl-6-morpholin-4-yl-9H-purin-8-yl]-2-methylpiperazin-1-yl}-4-oxobutan-2-ol] | ≤ 5 µM | ≤ 5 µM | > 60%
CC(C)Cn1c(N2CCN(C(=O)C[C@H](C)O)[C@@H](C)C2)nc2c(N3CCOCC3)nc(-c3cnc(N)nc3)nc21 [Example 85, (2S)-4-{(2S)-4-[2-(2-Aminopyrimidin-5-yl)-9-isobutyl-6-morpholin-4-yl-9H-purin-8-yl]-2-methylpiperazin-1-yl}-4-oxobutan-2-ol] | ≤ 5 µM | ≤ 5 µM | > 60%
CC(C)Cn1c(N2CCN(C(=O)C[C@H](C)O)[C@H](C)C2)nc2c(N3CCOCC3)nc(-c3cnc(N)nc3)nc21 [Example 86, (2S)-4-{(2R)-4-[2-(2-Aminopyrimidin-5-yl)-9-isobutyl-6-morpholin-4-yl-9H-purin-8-yl]-2-methylpiperazin-1-yl}-4-oxobutan-2-ol] | ≤ 5 µM | ≤ 5 µM | > 60%
CNc1ncc(-c2nc(N3CCOCC3)c3nc(N4CCN(CC(=O)N(C)C)[C@H](C)C4)n(CC(F)(F)F)c3n2)cn1 [Example 87, N,N-Dimethyl-2-[(2R)-2-methyl-4-{2-[2-(methylamino)pyrimidin-5-yl]-6-morpholin-4-yl-9-(2,2,2-trifluoroethyl)-9H-purin-8-yl}piperazin-1-yl]acetamide] | ≤ 5 µM | ≤ 5 µM | > 60%
C[C@H](O)C(=O)N1CCN(c2nc3c(N4CCOCC4)nc(-c4cnc(N)nc4)nc3n2CC2CC2)CC1 [Example 88, (2S)-1-{4-[2-(2-Aminopyrimidin-5-yl)-9-(cyclopropylmethyl)-6-morpholin-4-yl-9H-purin-8-yl]piperazin-1-yl}-1-oxopropan-2-ol] | ≤ 5 µM | ≤ 5 µM | > 60%
CC(C)Cn1c(N2CCN(C(=O)[C@@H](C)O)CC2)nc2c(N3CCOCC3)nc(-c3cnc(N)nc3)nc21 [Example 93] | ≤ 5 µM | ≤ 5 µM | > 60%
C[C@H](O)C(=O)N1CCN(c2nc3c(N4CCOCC4)nc(-c4cnc(N)nc4)nc3n2CC2CC2)C[C@H]1C [Example 95, (2S)-1-{(2R)-4-[2-(2-Aminopyrimidin-5-yl)-9-(cyclopropylmethyl)-6-morpholin-4-yl-9H-purin-8-yl]-2-methylpiperazin-1-yl}-1-oxopropan-2-ol] | ≤ 5 µM | ≤ 5 µM | > 60%
CC(=O)N1CCN(c2nc3c(N4CCOCC4)nc(-c4cnc(N)nc4)nc3n2CC2CC2)C[C@@H]1C [Example 96, 5-{8-[(3S)-4-Acetyl-3-methylpiperazin-1-yl]-9-(cyclopropylmethyl)-6-morpholin-4-yl-9H-purin-2-yl}pyrimidin-2-amine] | ≤ 5 µM | ≤ 5 µM | > 60%
CC(=O)N1CCN(c2nc3c(N4CCOCC4)nc(-c4cnc(N)nc4)nc3n2CC2CC2)C[C@H]1C [Example 97, 5-{8-[(3R)-4-Acetyl-3-methylpiperazin-1-yl]-9-(cyclopropylmethyl)-6-morpholin-4-yl-9H-purin-2-yl}pyrimidin-2-amine] | ≤ 5 µM | ≤ 5 µM | 30 to 60%
CC(=O)N1[C@H](C)CN(c2nc3c(N4CCOCC4)nc(-c4cnc(N)nc4)nc3n2CC2CC2)C[C@@H]1C [Example 98, 5-{8-[4-Acetyl-cis-3,5-dimethylpiperazin-1-yl]-9-(cyclopropylmethyl)-6-morpholin-4-yl-9H-purin-2-yl}pyrimidin-2-amine] | ≤ 5 µM | ≤ 5 µM | 30 to 60%

The next lines start with results.

GI50 [1] | GI50 [3] | SMILES | inhibition at 10 mg/kg [2]
≤ 5 µM | ≤ 5 µM | CC[C@H]1CN(c2nc3c(N4CCOCC4)nc(-c4cnc(N)nc4)nc3n2CC(F)(F)F)CCN1S(C)(=O)=O [Example 76, 5-{8-[(3S)-3-Ethyl-4-(methylsulfonyl)piperazin-1-yl]-6-morpholin-4-yl-9-(2,2,2-trifluoroethyl)-9H-purin-2-yl}pyrimidin-2-amine] | > 60%
≤ 5 µM | ≤ 5 µM | CC(C)Cn1c(N2CCN(C(=O)C[C@@H](C)O)CC2)nc2c(N3CCOCC3)nc(-c3cnc(N)nc3)nc21 [Example 81, (2R)-4-{4-[2-(2-Aminopyrimidin-5-yl)-9-isobutyl-6-morpholin-4-yl-9H-purin-8-yl]piperazin-1-yl}-4-oxobutan-2-ol] | > 60%
≤ 5 µM | ≤ 5 µM | CC(C)Cn1c(N2CCN(C(=O)C[C@H](C)O)CC2)nc2c(N3CCOCC3)nc(-c3cnc(N)nc3)nc21 [Example 82, (2S)-4-{4-[2-(2-Aminopyrimidin-5-yl)-9-isobutyl-6-morpholin-4-yl-9H-purin-8-yl]piperazin-1-yl}-4-oxobutan-2-ol] | > 60%
≤ 5 µM | ≤ 5 µM | CC(C)Cn1c(N2CCN(C(=O)C[C@@H](C)O)[C@H](C)C2)nc2c(N3CCOCC3)nc(-c3cnc(N)nc3)nc21 [Example 84, (2R)-4-{(2R)-4-[2-(2-Aminopyrimidin-5-yl)-9-isobutyl-6-morpholin-4-yl-9H-purin-8-yl]-2-methylpiperazin-1-yl}-4-oxobutan-2-ol] | > 60%
≤ 5 µM | ≤ 5 µM | CC(C)Cn1c(N2CCN(C(=O)CO)CC2)nc2c(N3CCOCC3)nc(-c3cnc(N)nc3)nc21 [Example 89, 2-{4-[2-(2-Aminopyrimidin-5-yl)-9-isobutyl-6-morpholin-4-yl-9H-purin-8-yl]piperazin-1-yl}-2-oxoethanol] | > 60%
≤ 5 µM | ≤ 5 µM | CC(C)Cn1c(N2CCN(C=O)CC2)nc2c(N3CCOCC3)nc(-c3cnc(N)nc3)nc21 [Example 90, 4-[2-(2-Aminopyrimidin-5-yl)-9-isobutyl-6-morpholin-4-yl-9H-purin-8-yl]piperazine-1-carboaldehyde] | > 60%
≤ 5 µM | ≤ 5 µM | C[C@H](O)C(=O)N1CCN(c2nc3c(N4CCOCC4)nc(-c4cnc(N)nc4)nc3n2CC2CC2)C[C@@H]1C [Example 92, (2S)-1-{(2S)-4-[2-(2-Aminopyrimidin-5-yl)-9-(cyclopropylmethyl)-6-morpholin-4-yl-9H-purin-8-yl]-2-methylpiperazin-1-yl}-1-oxopropan-2-ol] | > 60%

From patent US8309546B2, “Morpholinopurine derivatives” (Daiichi Sankyo Company, Limited, priority 2008, dated 2012)
